Measurements from patent publication US10654808B2, “Tyrosine kinase inhibitor and pharmaceutical composition comprising same” (GUANGDONG RAYNOVENT BIOTECH CO., LTD., priority 2015, dated 2020).

What was measured:
Calu 6 Transplant model = assay: Tumor growth inhibition (TGI), Calu 6 transplant model in mice; assay type: in vivo; conditions: QD
Description: The evolution and growth trends of the tumor was evaluated by the relationship between tumor volume and time. The long axis (L) and short axis (W) of the subcutaneous tumor were measured twice a week by the caliper and the volume of the tumor (TV) was calculated by the formula ((L×W^2)/2). TGI was calculated by the difference between the median tumor volume of the mice in the solvent group and the median tumor volume of the mice in the drug group expressed as a percentage of the tumor volume in the solvent control group
Calculated by the following formula: % TGI=((intermediate tumor volume (control)−intermediate tumor volume (administration group))/intermediate tumor volume (control group))×100%
The original statistical analysis was performed by repeated variance analysis, and then a multiple comparisons were performed using the Scheffe psot hoc test method. Individual solvent (0.5% methylcellulose+0.2% Tween aqueous solution) was a negative control.

FGFR1 = target: T1, FGFR1 (Homo sapiens, UniProt P11362); assay: Z'-LYTE in vitro enzyme activity assay, FGFR1; assay type: biochemical; conditions: 25 μM ATP, 60 minutes, room temperature; read-out: IC50 detected by Z'-LYTE, FGFR1
T1 construct: purchased Life technology
Procedure, shortened: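 Z′-LYTE FRET assay with 1 nM FGFR1, 2 μM Tyr4 peptide and 25 μM ATP in HEPES pH 7.5 with Mg/Mn, 60 min at room temperature, then development 60 min at 23 °C. Compounds tested at 11 concentrations from 10 μM to 0.17 nM in 1% DMSO. IC50 from 4-parameter fit of inhibition.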

VEGFR2 = target: T2, VEGFR2 (Homo sapiens, UniProt P35968); assay: Z'-LYTE in vitro enzyme activity assay, VEGFR2; assay type: biochemical; conditions: 100 μM ATP, 60 minutes, room temperature; read-out: IC50 detected by Z'-LYTE, VEGFR2
T2 construct: purchased Life technology
Procedure, shortened: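 Reaction with 3 nM VEGFR2, 2 μM Tyr1 peptide and 100 μM ATP in HEPES pH 7.5/MgCl2/EGTA/BRIJ-35, 1% DMSO, 60 min at room temperature; development reagent then 60 min at 23° C. Compounds tested at 11 threefold dilutions, 10 μM–0.17 nM final, in duplicate; IC50 from 4-parameter fit of inhibition.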

PDGFRB = target: T3, PDGFRB (Homo sapiens, UniProt P09619); assay: Z'-LYTE in vitro enzyme activity assay, PDGFRB; assay type: biochemical; conditions: 100 μM ATP, 60 minutes, room temperature; read-out: IC50 detected by Z'-LYTE, PDGFRB
T3 construct: purchased Millipore
Procedure, shortened: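 Z′-LYTE FRET kinase assay using 40 nM PDGFRB, 2 μM Tyr4 peptide and 100 μM ATP in HEPES pH 7.5 with Mg2+/Mn2+ and 1% DMSO. The reaction ran 60 min at room temperature, followed by development for 60 min at 23 °C. IC50 values came from 4-parameter fits over 11 concentrations (10 μM–0.17 nM).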

HUVEC = assay: CellTiter-Glo luminescent cell viability assay, HUVEC stimulated with hVEGF-165; assay type: cell-based; conditions: Homo sapiens, hVEGF-165 20 ng/ml, 72 hours, read-out: IC50 detected by CellTiter-Glo, HUVEC
Description: The intracellular ATP changes were measured by CellTiter-Glo® Luminescent Cell Viability Assay. The IC50 value of the compounds was used as an index to evaluate the inhibitory effect of the compounds on HUVEC in vitro.
HUVEC cell line (ATCC), EGM-2 BulletKit (Lonza), hVEGF-165 (Cell Signaling), trypsin (Invitrogen), DPBS (Hyclone), 384 cell plate (Greiner), 384 compound plate (Greiner), CO2 incubator (Thermo), centrifuge (Eppendorf), Vi-cell cell counter (Beckman Coulter), Bravo Automatic Liquid Workstation (Agilent), Envision (Perkin Elmer)
B: Cell plating: HUVEC cells were resuspended with starved medium (only containing 2% FBS and 0.1% GA-1000) and diluted to a concentration of 20,000/mL. The diluted cells were added to a 384 plate (Greiner), 50 μl per well. The cell plates were placed in a 37° C., 5% CO2 incubator overnight.
C: Drug addition: the test compounds were diluted 4 times to obtain a total of 10 doses at a final concentration of 10 uM to 0.038 nM, two parallel wells. The middle plate was added with 47.6 uL of starved medium per well. 2.4 μl of compounds was transferred from a gradient dilution compound plate to a middle plate and mixed well. 5 μl of liquid was transferred from the middle plate to a cell plate. Incubate for 1 hour at 37° C. in a 5% CO2 incubator, 5 μl of starved medium containing hVEGF-165 (the final concentration was 20 ng/ml) and Heparin (the final concentration was 1 ng/m) were added and incubated at 37° C. in a 5% CO2 incubator for 72 hours.
D: After 72 hours, 30 μl of assay reagents was added and incubated at room temperature for 10-30 minutes, Envision was used to read the plate.
The reading was converted into suppression rate (%) (Max−Sample)/(Max−Min)*100%. Parameter curve fitting (Model 205 in XLFIT5, iDBS) was used to measure to obtain IC50 data.

T3 sequence (P09619 33-1106): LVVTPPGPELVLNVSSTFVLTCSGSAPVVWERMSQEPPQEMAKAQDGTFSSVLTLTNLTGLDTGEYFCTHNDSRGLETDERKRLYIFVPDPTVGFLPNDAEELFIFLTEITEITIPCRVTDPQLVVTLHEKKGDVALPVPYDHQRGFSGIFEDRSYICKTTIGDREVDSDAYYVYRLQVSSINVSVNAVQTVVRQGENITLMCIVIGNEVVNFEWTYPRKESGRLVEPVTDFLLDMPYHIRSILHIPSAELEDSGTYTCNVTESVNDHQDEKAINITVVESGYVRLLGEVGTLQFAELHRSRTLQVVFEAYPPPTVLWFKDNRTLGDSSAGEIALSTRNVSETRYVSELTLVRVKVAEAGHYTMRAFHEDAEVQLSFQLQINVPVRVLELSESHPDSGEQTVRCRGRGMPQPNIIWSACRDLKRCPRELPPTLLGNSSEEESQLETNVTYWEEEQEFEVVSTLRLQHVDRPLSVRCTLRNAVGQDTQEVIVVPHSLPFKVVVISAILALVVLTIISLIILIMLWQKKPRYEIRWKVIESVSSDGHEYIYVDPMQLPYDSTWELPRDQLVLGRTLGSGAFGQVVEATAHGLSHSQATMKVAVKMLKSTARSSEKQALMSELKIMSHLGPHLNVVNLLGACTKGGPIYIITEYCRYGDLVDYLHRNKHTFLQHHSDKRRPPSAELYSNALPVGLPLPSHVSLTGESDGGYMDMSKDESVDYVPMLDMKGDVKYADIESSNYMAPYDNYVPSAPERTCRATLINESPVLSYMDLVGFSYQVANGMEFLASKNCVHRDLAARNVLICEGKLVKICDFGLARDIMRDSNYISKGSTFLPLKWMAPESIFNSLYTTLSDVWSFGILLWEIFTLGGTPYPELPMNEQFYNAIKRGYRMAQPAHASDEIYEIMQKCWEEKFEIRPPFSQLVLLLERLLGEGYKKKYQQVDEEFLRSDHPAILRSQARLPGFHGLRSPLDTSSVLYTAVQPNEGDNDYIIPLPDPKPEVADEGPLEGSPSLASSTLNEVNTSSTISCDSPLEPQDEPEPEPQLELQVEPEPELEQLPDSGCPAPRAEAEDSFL
T1 sequence (P11362 22-822): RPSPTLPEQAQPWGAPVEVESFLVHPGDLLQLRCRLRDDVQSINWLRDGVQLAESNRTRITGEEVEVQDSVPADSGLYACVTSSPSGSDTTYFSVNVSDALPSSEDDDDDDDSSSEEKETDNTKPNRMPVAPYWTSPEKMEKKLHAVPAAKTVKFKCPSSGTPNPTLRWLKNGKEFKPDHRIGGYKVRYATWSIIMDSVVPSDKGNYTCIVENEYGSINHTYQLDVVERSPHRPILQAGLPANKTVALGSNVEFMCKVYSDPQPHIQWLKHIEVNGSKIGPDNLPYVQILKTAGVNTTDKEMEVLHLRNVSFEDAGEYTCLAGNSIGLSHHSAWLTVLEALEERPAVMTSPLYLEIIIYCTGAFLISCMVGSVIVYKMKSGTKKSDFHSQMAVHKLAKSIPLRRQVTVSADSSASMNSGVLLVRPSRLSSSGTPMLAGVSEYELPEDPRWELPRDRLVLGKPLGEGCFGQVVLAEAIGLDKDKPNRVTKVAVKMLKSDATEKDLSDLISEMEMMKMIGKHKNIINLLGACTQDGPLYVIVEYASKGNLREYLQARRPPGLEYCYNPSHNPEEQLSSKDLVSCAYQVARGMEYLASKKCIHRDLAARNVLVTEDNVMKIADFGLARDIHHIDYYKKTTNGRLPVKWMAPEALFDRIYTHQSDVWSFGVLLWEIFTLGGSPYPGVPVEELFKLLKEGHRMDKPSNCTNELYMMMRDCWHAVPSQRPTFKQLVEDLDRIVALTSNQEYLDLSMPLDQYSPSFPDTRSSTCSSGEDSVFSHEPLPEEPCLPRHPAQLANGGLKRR
T2 sequence (P35968 20-1356): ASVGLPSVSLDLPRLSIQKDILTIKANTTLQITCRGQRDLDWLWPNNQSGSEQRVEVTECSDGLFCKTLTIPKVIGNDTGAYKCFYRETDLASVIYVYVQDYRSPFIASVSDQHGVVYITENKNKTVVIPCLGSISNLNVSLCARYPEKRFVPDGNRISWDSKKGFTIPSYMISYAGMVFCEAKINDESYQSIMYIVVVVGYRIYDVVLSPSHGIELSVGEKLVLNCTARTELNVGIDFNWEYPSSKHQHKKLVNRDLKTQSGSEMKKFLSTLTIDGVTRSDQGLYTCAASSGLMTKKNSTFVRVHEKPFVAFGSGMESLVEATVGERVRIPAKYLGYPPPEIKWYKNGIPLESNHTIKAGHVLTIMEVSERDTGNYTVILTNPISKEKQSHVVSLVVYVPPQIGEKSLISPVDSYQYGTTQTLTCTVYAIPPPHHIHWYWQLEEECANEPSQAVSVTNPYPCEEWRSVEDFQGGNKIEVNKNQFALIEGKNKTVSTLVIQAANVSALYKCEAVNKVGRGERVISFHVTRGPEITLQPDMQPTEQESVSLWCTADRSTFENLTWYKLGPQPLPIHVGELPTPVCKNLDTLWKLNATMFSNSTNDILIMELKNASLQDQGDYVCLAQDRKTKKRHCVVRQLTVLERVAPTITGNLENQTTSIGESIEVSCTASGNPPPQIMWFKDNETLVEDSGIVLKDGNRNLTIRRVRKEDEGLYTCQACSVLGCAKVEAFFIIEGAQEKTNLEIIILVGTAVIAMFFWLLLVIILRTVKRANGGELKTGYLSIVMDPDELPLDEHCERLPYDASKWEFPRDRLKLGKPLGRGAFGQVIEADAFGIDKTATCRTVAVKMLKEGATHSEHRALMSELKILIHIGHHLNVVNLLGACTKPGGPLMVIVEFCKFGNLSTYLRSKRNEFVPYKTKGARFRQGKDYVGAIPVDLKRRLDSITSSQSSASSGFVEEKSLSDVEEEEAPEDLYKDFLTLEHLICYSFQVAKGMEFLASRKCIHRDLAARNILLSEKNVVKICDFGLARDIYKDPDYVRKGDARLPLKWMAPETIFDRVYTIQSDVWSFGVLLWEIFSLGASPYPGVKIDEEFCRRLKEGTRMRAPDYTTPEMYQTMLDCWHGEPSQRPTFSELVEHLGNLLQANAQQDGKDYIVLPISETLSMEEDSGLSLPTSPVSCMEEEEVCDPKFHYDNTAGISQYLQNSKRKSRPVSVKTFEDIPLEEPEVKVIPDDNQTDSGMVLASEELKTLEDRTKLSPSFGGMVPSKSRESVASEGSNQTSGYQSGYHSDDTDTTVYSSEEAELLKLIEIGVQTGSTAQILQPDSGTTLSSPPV

| Structure (SMILES) | IC50 (FGFR1) [nM] | IC50 (VEGFR2) [nM] | IC50 (PDGFRB) [nM] | TGI % (last administration) (Calu 6 Transplant model; 10 mg/kg) [%] | IC50 (HUVEC) [nM] | TGI % (last administration) (Calu 6 Transplant model; 100 mg/kg) [%] | TGI % (last administration) (Calu 6 Transplant model; 50 mg/kg) [%] |
| --- | --- | --- | --- | --- | --- | --- | --- |
| CCNC(=O)Nc1ccc(Oc2ccnc3cc(-c4cn(C)cn4)ccc23)c(F)c1Cl [Example 216] | < 50 | < 50 | 50 to 200 | 83 | < 100 |  |  |
| COCCOc1cc2nccc(Oc3ccc(NC(=S)NC4CC4)c(Cl)c3)c2cc1C(N)=O [Example 174] | 200 to 1000 | < 50 | < 50 |  | < 100 |  |  |
| Cn1cnc(-c2ccc3c(Oc4ccc(NC(=O)N5CCCC5)c(Cl)c4F)ccnc3c2)c1 [Example 219] | < 50 | < 50 | 50 to 200 |  | < 100 |  |  |
| CCNC(=S)Nc1ccc(Oc2ccnc3cc(OC)c(C(N)=O)cc23)cc1Cl [Example 56] | 50 to 200 | < 50 | < 50 |  | < 100 |  |  |
| CCNC(=S)Nc1ccc(Oc2ccnc3cc(OC)c(C(N)=O)cc23)c(F)c1Cl [Example 124] | < 50 | < 50 | < 50 |  | < 100 |  |  |
| Cn1cnc(-c2ccc3c(Oc4ccc(NC(=O)NC5CC5)c(Cl)c4F)ccnc3c2)c1 [Example 214] | < 50 | < 50 | 50 to 200 |  | < 100 |  |  |
| COc1cc2nccc(Oc3ccc(NC(=S)NC4CC4)c(Cl)c3)c2cc1C(=O)NO [Example 50] | 200 to 1000 | < 50 | 50 to 200 |  | 100 to 1000 |  |  |
| CNC(=O)c1coc2cc(Oc3ccnc4cc(-c5cn(C)cn5)ccc34)ccc12 [Example 225] | < 50 | < 50 | 50 to 200 |  | < 100 |  |  |
| [2H]C([2H])([2H])NC(=O)c1coc2cc(Oc3ccnc4cc(OC)c(C(N)=O)cc34)ccc12 [Example 200] | 50 to 200 | < 50 | < 50 |  | < 100 | 59 |  |
| Cn1cncc1-c1ccc2c(Oc3ccc(NC(=O)NC4CC4)c(Cl)c3F)ccnc2c1 [Example 215] | 50 to 200 | < 50 | 50 to 200 |  | < 100 |  |  |
| CCNC(=O)Nc1ccc(Oc2ccnc3cc(-c4cn(C)cn4)ccc23)cc1Cl [Example 220] | < 50 | < 50 | 50 to 200 |  | < 100 |  |  |
| COc1cc2nccc(Oc3ccc(NC(=S)NC4CC4)c(Cl)c3)c2cc1C(N)=O [Example 1] | 200 to 1000 | < 50 | 50 to 200 |  | < 100 |  | 57 |

The next lines start with results.

| IC50 (FGFR1) [nM] | IC50 (VEGFR2) [nM] | IC50 (PDGFRB) [nM] | Structure (SMILES) | TGI % (last administration) (Calu 6 Transplant model; 10 mg/kg) [%] | IC50 (HUVEC) [nM] | TGI % (last administration) (Calu 6 Transplant model; 100 mg/kg) [%] | TGI % (last administration) (Calu 6 Transplant model; 50 mg/kg) [%] |
| --- | --- | --- | --- | --- | --- | --- | --- |
| 50 to 200 | < 50 | < 50 | COc1cc2nccc(Oc3ccc(NC(=S)NC4CC4)c(Cl)c3F)c2cc1C(N)=O [Example 78] |  | < 100 |  |  |
| 200 to 1000 | < 50 | 50 to 200 | COc1cc2nccc(Oc3ccc(NC(=S)NCC(F)(F)F)c(Cl)c3)c2cc1C(N)=O [Example 16] |  | < 100 |  |  |
| 200 to 1000 | < 50 | 50 to 200 | COc1cc2nccc(Oc3ccc(NC(=S)NC4CCC4)c(Cl)c3)c2cc1C(N)=O [Example 6] |  | < 100 |  |  |
| < 50 | < 50 | 50 to 200 | COc1cc2nccc(Oc3ccc(NC(=S)N4CC(F)C4)c(Cl)c3F)c2cc1C(N)=O [Example 123] |  | 100 to 1000 |  |  |
| 200 to 1000 | 50 to 200 | 50 to 200 | COc1cc2nccc(Oc3ccc(NC(=S)Nc4ccccc4)c(Cl)c3)c2cc1C(N)=O [Example 2] |  | < 100 |  |  |
| < 50 | < 50 | < 50 | [2H]C([2H])([2H])NC(=S)Nc1ccc(Oc2ccnc3cc(OC)c(C(N)=O)cc23)c(F)c1Cl [Example 112] |  | < 100 |  |  |
| 200 to 1000 | < 50 | 50 to 200 | COc1cc2nccc(Oc3ccc(NC(=S)N[C@H](C)CO)c(Cl)c3)c2cc1C(N)=O [Example 21] |  | < 100 |  |  |
